Data on four molecules can be found in patent publication US8865894B2, “Oxazolidin-2-one compounds and uses thereof” (Novartis AG, priority 2012, dated 2014).

Holding throughout (type): cell-based
Data set [1] addresses T1, human PI3Kalpha p110 catalytic subunit (Rat-1 pBABEpuro Myr-HA-hp110alpha) (Homo sapiens, UniProt P42336).
T1 construct: Myr (myristoylation signal) (N); HA (N); expressed in transfected cells; host or cells: Rat-1
The data set is described as follows: Cellular assay PI3Kalpha (p-Akt(S473) SureFire, Rat-1_PI3Kalpha cells). Particulars: 1 h compound treatment, read-out: Rat1-PI3Ka/ IC50. The text has this: (§1) AlphaScreen (Amplified Luminescent Proximity Homogeneous Assay, ALPHA, Perkin Elmer) is a non-radioactive bead-based proximity assay technology to study biomolecular interactions in a homogenous microtiter plate format. The brand name SureFire denotes AlphaScreen assays that are adapted to quantify the phosphorylation of endogenous cellular proteins in cell lysates, by using matched antibody pairs, which consist of an anti-phospho-kinase and an anti-kinase antibody. The assay allows characterization of kinase signaling in cells as well as measurement of kinase inhibitor effects. The AlphaScreen technology provides several advantages over standard assay techniques such as ELISA, as it avoids time-consuming washing procedures and reduces plate handling. Furthermore, it is miniaturizable at least to a 384-well format and provides sensitivity down to the femtomolar range, dependent on the affinity of the antibodies included in the individual AlphaScreen SureFire assay kit. High sensitivity is reached by an intrinsic amplification mechanism, which involves production of singlet oxygen molecules. SureFire assay kits are commercially available for specific targets and include pairs of validated antibodies (PerkinElmer). This report describes common procedures applied for AlphaScreen SureFire assays and respective semi-automated steps for routine kinase inhibitor profiling in cell-based assays.
(§2) The Rat-1 cell lines stably overexpressing activated PI3K class I isoforms Rat-1 pBABEpuro Myr-HA-hp110 delta (Rat-1_PI3Kdelta) and Rat-1 pBABEpuro Myr-HA-hp110alpha (Rat-1_PI3Kalpha) and Rat-1 pBABEpuro Myr-HA-hp110 beta (Rat-1_PI3beta) were prepared as described (Maira S M, Stauffer F, Brueggen J, Furet P, Schnell C, Fritsch C, Brachmann S, Chène P, de Pover A, Schoemaker K, Fabbro D, Gabriel D, Simonen M, Murphy L, Finan P, Sellers W, García-Echeverría C (2008), Mol Cancer Ther. 7:1851-63 and Maira S M, Pecchi S, Brueggen J, Huh K, Schnell C, Fritsch C, Nagel T, Wiesmann M, Brachmann S, Dorsch M, Chène P, Schoemaker K, De Pover A, Menezes D, Fabbro D, Sellers W, García-Echeverría C, Voliva C F (2011), Mol. Cancer Ther., accepted). All cell lines were cultivated in complete growth medium (DMEM high glucose, 10% (v/v) fetal bovine serum, 1% (v/v) MEM NEAA, 10 mM HEPES, 2 mM L-glutamine, puromycin (10 μg/mL for Rat-1_PI3Kdelta and Rat-1_PI3Kalpha, 4 ug/mL for Rat-1_PI3beta), 1% (v/v) Pen/Strep) to 90% confluency at 37° C./5% CO2/90% humidity in a humidified CO2 incubator and were split twice a week.
(§3) The following materials were used for p-AKT(S473) detection in Rat-1 cell lysates: Dulbecco's modified Eagle's medium (DMEM) high glucose (Gibco Invitrogen, Basel, Switzerland, Cat. No. 41965), Heat Inactivated Fetal Bovine Serum, Qualified (HI FBS; Gibco Invitrogen, Basel, Switzerland, Lot. No. 16140), MEM non essential amino acids (NEAA; Gibco Invitrogen, Basel, Switzerland, Cat. No. 11140), HEPES (Gibco Invitrogen, Basel, Switzerland, Cat. No. 15630), Penicillin/Streptomycin (Pen/Strep, 100×; Gibco Invitrogen, Basel, Switzerland, Cat. No. 15140-122), L-Glutamine (Gibco Invitrogen, Basel, Switzerland, Cat. No. 25030), Puromycin (Sigma Aldrich, Buchs, Switzerland, Cat. No. P9620), DMSO (MERCK, Dietikon, Switzerland, Cat. No. 8.02912.2500), H2O, MilliQ-H2O unless otherwise stated (MILLIPORE QGARDOOR1, Millipore, Zug, Switzerland), Bovine serum albumine (BSA; Sigma Aldrich, Buchs, Switzerland Cat. No. A8412), SureFire p-Akt 1/2 (Ser473) Assay Kit (PerkinElmer, Schwerzenbach, Switzerland, Cat. No. TGRAS50K).
(§4) The p-Akt(S473) SureFire assay measures the phosphorylation of endogenous cellular Akt 1/2 at Ser473 in cell lysates. Using Rat-1 cells stably expressing myr-HA-tagged versions of the human PI3Kdelta, PI3Kalpha, or PI3Kbeta p110 catalytic subunit isoforms, the assay was developed as a two-plate protocol in a 384-well format.

For data set [2], the target named is T2, human PI3Kbeta p110 catalytic subunit (Rat-1 pBABEpuro Myr-HA-hp110 beta) (Homo sapiens, UniProt P42338).
T2 construct: Myr (myristoylation signal) (N); HA (N); expressed in transfected cells; host or cells: Rat-1
The data set is described as follows: Cellular assay PI3Kbeta (p-Akt(S473) SureFire, Rat-1_PI3beta cells). The note with it: p-Akt(S473), 1 h compound treatment; read-out: Rat1-PI3Kb/ IC50.
Source text: as §1, §2, §3, §4

Data set [3] has as its target T3, human PI3Kdelta p110 catalytic subunit (Rat-1 pBABEpuro Myr-HA-hp110 delta) (Homo sapiens, UniProt O00329).
T3 construct: Myr (myristoylation signal) (N); HA (N); expressed in transfected cells; host or cells: Rat-1
Description: Cellular assay PI3Kdelta (p-Akt(S473) SureFire, Rat-1_PI3Kdelta cells). The note with it: 1 h compound treatment, read-out: Rat1-PI3Kd/ IC50.
Source text: as §1, §2, §3, §4

A further data set concerns the target T4, mTOR (Mus musculus, UniProt Q9JLN9).
T4 construct: endogenous in cells; host or cells: TSC1-/- MEF (mouse embryo fibroblasts)
The data set is described as follows: Cellular assay mTOR (phospho-T389 S6K1 SureFire in TSC1-/- MEF cells). The note with it: TSC1-/- MEF cells; read-out: mTOR S6K(T389)_TSC1ko/ IC50. An excerpt:
A cell based assay (384-well format) was developed for determination of compound effects on cellular mTOR kinase activity in MEF (mouse embryo fibroblasts) cells derived from mice lacking TSC1 (Tuberosclerosis Complex1) a potent suppressor of mTOR kinase activity. Due to lack of TSC1 the mTOR kinase is constitutively activated resulting in permanent phosphorylation of Thr 389 of S6 kinase 1 (S6K1) which is one of the downstream targets of mTOR.
Using a SureFire Kit that enables to determine the phosphorylation of Thr389 on the S6K1 an assay was developed, validated and implemented in the Alpha-Screen format that allows the quantitative determination of phospho-T389 of S6K1 in cell lysates. […] These were in agreement with those values obtained with the biochemical mTOR ATP-binding assay enabling a quantitative comparison of potency of mTOR inhibitors.
TSC1−/− MEFs cells (Kwiatkowski, D. J., Zhang, H., Bandura, J. L., Heiberger, K. M., Glogauer, M., el-Hashemite, N., and Onda, H. (2002) Hum. Mol. Genet. 11, 525-534) were cultured in DMEM high glucose medium supplemented with 10% FBS (Invitrogen), 2 mM Glutamine and 1% (w/v) Penicillin/Streptomycin at 37° C., 5% CO2.
The SureFire kit for determination of P70S6kinase phosphorylation was purchased from Perkin Elmer (p70S6K p-T389, #TGR70S50K) and the assay was performed according to the instructions of the supplier and according to the generic method for SureFire assays. Shortly, 5 μL cell lysate per well were transferred to 384-well white proxy-plates (for luminescent readout) and mixed with […] and […] (final volume: 12 μL). After 3 h incubation in the dark at RT luminescence was read with the Envision Reader (Perkin Elmer). Untreated cells were used as control (high control) and cells treated with 3 μM BEZ235 were used as low control. The assay window between the signals obtained for the high and the low controls were defined as 100% and compound effects were expressed as percent inhibition. IC50 values were calculated from the dose response curves by graphical extrapolation.

The test system of another data set is A2058 cells. Description: Cell cycle G2/M arrest Cytospin assay to detect tubulin binding (off-target). Further details: key: 0=no condensed DNA observed (indicating no off target activity); 1=(indicating weak off target activity); 2=(indicating medium off target activity); 3=large amount of condensed DNA observed (indicating strong off-target activity). The note with it: 5 μM test item, 24 hours. The procedure: The off-target effect (evidence of tubulin binding) was measured as follows.
Cell cycle G2/M arrest Cytospin assay to detect tubulin binding (off-target) binding activities of MAPP derivatives: 5×10^5 cells A2058 cells were plated in 6-well cluster, with 2 mL of DMEM (high Glucose containing 1% sodium pyruvate, 1% glutamin and 10% FCS). 18 hours later, the test items were added at a concentration of 5 μM (spiking 1 μL of a 10 mM solution of the test item). 24 hours later, the cells were trypsinized and transferred into a 15 mL conical tube. Cells are then pelleted by centrifugation, and resuspended with PBS/0 (containing 10% FCS). Cells are counted with a CASY counter, and each samples equilibrated to 1×10^6 cells/mL. […] The staining was visually assessed for the presence of condensed DNA and given a score where 0=no condensed DNA observed (indicating no off target activity), 1=(indicating weak off target activity), 2=(indicating medium off target activity), 3=large amount of condensed DNA observed (indicating strong off-target activity).

T1 sequence (P42336 whole entry): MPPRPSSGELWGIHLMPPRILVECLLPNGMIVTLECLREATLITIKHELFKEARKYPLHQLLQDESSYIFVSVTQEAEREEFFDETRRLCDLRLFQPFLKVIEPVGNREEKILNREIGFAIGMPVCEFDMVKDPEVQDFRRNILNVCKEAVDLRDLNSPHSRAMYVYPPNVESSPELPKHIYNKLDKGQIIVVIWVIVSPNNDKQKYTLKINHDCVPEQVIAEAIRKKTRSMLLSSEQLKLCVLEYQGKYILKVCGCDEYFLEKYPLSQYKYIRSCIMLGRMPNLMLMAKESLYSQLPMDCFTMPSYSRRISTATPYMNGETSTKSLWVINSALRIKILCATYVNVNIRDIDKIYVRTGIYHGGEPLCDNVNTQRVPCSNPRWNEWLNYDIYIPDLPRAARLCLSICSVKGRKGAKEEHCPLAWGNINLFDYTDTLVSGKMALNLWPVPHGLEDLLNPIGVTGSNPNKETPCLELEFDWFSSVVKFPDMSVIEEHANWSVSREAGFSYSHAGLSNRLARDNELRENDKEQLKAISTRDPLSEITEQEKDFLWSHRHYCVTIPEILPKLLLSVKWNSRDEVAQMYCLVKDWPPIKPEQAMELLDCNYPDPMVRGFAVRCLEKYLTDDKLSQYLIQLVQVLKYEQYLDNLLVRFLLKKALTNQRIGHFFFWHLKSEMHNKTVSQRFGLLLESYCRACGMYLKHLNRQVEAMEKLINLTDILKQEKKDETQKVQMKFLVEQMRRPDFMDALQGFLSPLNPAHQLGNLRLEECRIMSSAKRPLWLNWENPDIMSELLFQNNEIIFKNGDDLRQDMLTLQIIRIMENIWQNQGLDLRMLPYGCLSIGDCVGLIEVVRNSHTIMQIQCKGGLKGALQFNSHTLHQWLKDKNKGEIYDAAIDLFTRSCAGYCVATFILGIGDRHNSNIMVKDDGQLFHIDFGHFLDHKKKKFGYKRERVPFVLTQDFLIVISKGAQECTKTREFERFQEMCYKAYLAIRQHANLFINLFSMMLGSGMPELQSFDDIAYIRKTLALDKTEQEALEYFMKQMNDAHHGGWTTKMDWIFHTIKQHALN
T1 sequence (Q63787 whole entry partner): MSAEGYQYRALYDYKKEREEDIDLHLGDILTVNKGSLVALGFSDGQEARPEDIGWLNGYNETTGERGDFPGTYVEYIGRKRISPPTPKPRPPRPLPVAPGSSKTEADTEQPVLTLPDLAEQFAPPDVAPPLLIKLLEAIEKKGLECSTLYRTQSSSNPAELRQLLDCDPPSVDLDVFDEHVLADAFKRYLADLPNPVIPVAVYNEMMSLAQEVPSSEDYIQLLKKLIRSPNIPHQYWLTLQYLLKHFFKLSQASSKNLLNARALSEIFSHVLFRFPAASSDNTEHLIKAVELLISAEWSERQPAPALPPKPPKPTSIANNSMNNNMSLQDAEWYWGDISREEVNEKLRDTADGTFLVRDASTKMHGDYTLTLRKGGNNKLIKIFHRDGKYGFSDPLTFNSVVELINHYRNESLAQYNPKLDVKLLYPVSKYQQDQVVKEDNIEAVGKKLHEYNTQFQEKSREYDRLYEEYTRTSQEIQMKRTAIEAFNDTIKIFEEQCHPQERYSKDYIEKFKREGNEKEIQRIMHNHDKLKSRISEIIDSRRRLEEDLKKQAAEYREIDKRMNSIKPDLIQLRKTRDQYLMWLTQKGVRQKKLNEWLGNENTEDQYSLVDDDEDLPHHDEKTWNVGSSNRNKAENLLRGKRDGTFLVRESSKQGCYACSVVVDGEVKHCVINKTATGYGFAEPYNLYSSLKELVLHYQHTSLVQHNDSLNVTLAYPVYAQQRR
T3 sequence (O00329 whole entry): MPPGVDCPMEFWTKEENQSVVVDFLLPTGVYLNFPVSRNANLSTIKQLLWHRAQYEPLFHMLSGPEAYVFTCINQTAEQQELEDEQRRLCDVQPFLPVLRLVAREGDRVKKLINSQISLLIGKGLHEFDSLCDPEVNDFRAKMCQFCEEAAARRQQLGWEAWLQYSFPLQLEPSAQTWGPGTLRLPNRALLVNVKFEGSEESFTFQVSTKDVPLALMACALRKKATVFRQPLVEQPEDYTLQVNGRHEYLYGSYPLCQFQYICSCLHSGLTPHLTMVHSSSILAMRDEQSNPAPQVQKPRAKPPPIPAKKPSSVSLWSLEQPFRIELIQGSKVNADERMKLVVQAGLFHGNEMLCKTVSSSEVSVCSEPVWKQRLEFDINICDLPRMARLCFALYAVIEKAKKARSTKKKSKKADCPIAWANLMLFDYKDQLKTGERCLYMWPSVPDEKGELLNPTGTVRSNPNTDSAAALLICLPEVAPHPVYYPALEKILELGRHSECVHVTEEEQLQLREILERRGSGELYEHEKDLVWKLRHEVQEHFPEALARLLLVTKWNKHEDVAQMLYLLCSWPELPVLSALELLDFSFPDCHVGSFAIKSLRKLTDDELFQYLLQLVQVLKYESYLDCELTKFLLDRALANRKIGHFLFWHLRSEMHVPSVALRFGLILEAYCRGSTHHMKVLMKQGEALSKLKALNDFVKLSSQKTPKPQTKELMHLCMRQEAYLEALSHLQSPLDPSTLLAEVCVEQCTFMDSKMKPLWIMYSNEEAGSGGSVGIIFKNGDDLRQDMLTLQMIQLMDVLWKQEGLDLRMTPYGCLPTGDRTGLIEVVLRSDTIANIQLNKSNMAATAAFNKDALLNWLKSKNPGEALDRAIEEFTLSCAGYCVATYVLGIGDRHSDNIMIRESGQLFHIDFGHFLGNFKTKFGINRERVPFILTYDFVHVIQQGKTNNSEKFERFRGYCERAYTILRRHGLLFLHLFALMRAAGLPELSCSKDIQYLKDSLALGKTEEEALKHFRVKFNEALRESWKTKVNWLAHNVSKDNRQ
T3 sequence (Q63787 whole entry partner): as the sequence (Q63787 whole entry partner) above
T2 sequence (P42338 whole entry): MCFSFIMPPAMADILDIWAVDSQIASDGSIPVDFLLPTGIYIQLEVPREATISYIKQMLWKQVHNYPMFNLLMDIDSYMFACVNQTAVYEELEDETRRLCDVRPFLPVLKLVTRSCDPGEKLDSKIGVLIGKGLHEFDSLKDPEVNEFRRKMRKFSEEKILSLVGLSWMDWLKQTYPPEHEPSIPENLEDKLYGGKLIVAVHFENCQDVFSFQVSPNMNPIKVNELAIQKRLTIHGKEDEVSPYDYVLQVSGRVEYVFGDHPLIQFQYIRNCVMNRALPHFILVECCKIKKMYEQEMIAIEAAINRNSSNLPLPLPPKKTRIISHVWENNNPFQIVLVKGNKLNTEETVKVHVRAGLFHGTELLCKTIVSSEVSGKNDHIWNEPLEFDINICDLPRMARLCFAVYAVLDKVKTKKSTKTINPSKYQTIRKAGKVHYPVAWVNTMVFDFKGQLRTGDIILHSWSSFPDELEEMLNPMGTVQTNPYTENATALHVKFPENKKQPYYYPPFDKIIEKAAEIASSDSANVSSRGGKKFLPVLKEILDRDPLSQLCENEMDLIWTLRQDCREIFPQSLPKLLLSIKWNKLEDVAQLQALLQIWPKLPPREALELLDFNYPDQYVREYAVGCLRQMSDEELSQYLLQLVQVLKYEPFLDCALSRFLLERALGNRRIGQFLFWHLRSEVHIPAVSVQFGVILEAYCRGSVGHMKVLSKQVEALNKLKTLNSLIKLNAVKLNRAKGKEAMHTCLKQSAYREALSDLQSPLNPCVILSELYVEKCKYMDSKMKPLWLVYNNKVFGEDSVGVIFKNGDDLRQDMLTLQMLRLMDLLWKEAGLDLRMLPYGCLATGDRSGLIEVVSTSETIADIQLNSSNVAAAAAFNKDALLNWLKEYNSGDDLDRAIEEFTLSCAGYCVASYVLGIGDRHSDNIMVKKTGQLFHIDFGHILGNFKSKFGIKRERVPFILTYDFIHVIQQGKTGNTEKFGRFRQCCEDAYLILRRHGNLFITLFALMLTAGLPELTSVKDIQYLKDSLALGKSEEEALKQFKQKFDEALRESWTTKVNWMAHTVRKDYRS
T2 sequence (Q63787 whole entry partner): as the sequence (Q63787 whole entry partner) above

As for `CC1(CO)COC(=O)N1c1cc(-c2cnc(N)nc2C(F)(F)F)nc(N2CCOCC2)n1` (single isomer, unassigned) [Example 3A, 3-(2′-amino-2-morpholino-4′-(trifluoromethyl)-4,5′-bipyrimidin-6-yl)-4-(hydroxymethyl)-4-methyloxazolidin-2-one], the IC50 came to 176 nM in data set [1], 93 nM in data set [2], 59 nM in data set [3] and 1570 nM at mTOR. The “Score (condensed DNA, G2/M arrest; off-target tubulin binding)” value in the data set with A2058 cells is given as 0.
In the same order, the values of `CC1(CO)COC(=O)N1c1cc(-c2cnc(N)nc2C(F)(F)F)nc(N2CCOCC2)n1` (single isomer, unassigned) [Example 3B, 3-(2′-amino-2-morpholino-4′-(trifluoromethyl)-4,5′-bipyrimidin-6-yl)-4-(hydroxymethyl)-4-methyloxazolidin-2-one] are 215 nM, 331 nM, 172 nM, 1110 nM and 0.
Take `Nc1ncc(-c2cc(N3C(=O)OC[C@@H]3CO)nc(N3CCOCC3)n2)c(C(F)(F)F)n1` [Example 7, (S)-3-(2′-Amino-2-morpholin-4-yl-4′-trifluoromethyl-[4,5′]bipyrimidinyl-6-yl)-4-hydroxymethyl-oxazolidin-2-one]: the IC50 in data set [1] stood at 120 nM; in data set [2], 132 nM; in data set [3], 70 nM; at mTOR it was 1230 nM.
On to `Nc1cc(C(F)(F)F)c(-c2cc(N3CCOCC3)nc(N3CCOCC3)n2)cn1` [WO2007/084786 Example 10, reference compound], for which the IC50 on mTOR turned out to be 602 nM. Also, the “Score (condensed DNA, G2/M arrest; off-target tubulin binding)” value in the data set on A2058 cells is reported as 3.
